According to ChEMBL document CHEMBL1201862, “PubChem BioAssay data set” (2004):
One block for each molecule: values may come before it. Calls of active or inactive are those of the source.

Experiments:
[1] = target: T1, Microphthalmia-associated transcription factor (Homo sapiens, UniProt O75030); assay: reducers of TRPM1 reporter luminescence, concentration series – cell-based, SK-MEL-5, cherry-picked, set 3, MITF inhibitor project, dose response (AID 493073); format: functional;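 also: SK-MEL-5 melanoma cells with luciferase driven by the MITF target TRPM1 promoter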
T1 sequence (O75030 whole entry): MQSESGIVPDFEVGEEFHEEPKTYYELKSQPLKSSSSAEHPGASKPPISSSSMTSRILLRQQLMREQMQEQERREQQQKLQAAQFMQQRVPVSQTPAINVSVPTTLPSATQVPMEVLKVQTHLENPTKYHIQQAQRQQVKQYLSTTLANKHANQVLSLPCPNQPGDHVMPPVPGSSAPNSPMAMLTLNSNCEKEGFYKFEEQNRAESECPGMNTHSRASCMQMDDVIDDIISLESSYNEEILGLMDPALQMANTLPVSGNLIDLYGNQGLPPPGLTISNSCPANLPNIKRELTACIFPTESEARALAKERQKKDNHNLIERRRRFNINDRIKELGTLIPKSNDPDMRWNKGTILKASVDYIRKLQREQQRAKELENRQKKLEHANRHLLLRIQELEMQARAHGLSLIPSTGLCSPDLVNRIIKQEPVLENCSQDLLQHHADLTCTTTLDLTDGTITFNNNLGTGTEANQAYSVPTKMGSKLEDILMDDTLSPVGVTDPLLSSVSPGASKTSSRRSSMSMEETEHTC

[2] = target: T2, Carboxy-terminal domain RNA polymerase II polypeptide A small phosphatase 1 (Homo sapiens, UniProt Q9GZU7); assay: CTDSP1 inhibitors, concentration-response, biochemical, absorbance readout, ultra-high-throughput screen actives (AID 540297); format: functional
T2 sequence (Q9GZU7 whole entry): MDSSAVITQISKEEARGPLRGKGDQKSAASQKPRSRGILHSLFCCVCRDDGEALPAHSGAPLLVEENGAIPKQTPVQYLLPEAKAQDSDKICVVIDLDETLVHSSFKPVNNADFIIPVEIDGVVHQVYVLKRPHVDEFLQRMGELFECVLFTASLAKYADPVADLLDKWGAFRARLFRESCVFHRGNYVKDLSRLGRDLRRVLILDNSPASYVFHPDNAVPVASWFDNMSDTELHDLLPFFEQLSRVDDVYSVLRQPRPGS

Cytochrome P450 2C19 = Cytochrome P450 2C19 (Homo sapiens, UniProt P33261); assay: Cytochrome panel assay with activity outcomes. Panel member name: p450-cyp2c19 Compounds with AC50 equal or less than 10 uM are considered active; format: functional; conditions: read-out: AC50
Cytochrome P450 3A4 = Cytochrome P450 3A4 (Homo sapiens, UniProt P08684);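 also: CYP3A4 tested as one member of a cytochrome P450 panel screen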
Leucine aminopeptidase = target: T3, Leucine aminopeptidase (Plasmodium falciparum 3D7, UniProt Q8IL11); assay: P. falciparum M17LAP inhibitors, primary screen, biochemical, fluorogenic H-Leu-NHMec substrate, 1536-well (AID 1619); format: functional
T3 sequence (Q8IL11 whole entry): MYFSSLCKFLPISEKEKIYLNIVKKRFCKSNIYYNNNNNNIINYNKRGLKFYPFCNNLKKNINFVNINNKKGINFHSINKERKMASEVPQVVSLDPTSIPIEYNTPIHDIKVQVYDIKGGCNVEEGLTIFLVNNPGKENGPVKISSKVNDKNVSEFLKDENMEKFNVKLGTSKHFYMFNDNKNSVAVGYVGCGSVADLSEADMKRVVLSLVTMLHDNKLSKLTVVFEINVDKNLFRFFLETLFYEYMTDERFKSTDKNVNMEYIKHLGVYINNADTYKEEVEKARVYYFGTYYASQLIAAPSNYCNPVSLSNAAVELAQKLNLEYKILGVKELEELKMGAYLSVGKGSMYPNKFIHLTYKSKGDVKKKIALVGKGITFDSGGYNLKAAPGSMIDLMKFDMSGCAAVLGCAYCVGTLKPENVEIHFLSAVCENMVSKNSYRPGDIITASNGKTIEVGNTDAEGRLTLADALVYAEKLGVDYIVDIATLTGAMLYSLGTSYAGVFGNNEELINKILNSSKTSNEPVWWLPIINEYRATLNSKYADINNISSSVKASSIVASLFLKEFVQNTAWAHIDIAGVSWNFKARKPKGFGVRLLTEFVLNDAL

H9c2 = assay: cells; format: functional, cell-based; conditions: Rattus norvegicus, H9c2, Myocardium;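 also: confirmatory concentration-response retest of ultra-high-throughput screening hits for modulation of myocardial damage; cell death induced by hydrogen peroxide oxidative stress; compound pretreatment for 60 min then peroxide exposure for 2 h; potency is for protecting the cells against peroxide damage rather than for killing them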
[3] = target: T4, Zinc finger protein mex-5 (Caenorhabditis elegans, UniProt Q9XUB2); assay: potency of MEX-5 RNA-binding blockers – biochemical, C. elegans, fluorescence polarization, dose response (AID 1960)
T4 sequence (Q9XUB2 whole entry): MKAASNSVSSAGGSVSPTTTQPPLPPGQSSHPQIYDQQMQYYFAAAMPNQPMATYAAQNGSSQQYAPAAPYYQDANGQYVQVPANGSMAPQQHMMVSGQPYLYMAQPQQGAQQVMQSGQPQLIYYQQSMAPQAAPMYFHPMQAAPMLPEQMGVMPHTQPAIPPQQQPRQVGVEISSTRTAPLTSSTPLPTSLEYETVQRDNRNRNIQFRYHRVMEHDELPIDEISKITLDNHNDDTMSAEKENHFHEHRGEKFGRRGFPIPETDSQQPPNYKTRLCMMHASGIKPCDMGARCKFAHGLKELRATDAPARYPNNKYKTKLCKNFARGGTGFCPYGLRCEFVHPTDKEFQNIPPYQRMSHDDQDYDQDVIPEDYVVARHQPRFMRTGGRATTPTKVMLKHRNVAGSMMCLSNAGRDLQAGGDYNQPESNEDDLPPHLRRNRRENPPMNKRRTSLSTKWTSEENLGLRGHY

[4] = target: T5, RNA-binding protein pos-1 (Caenorhabditis elegans, UniProt G5EF15); assay: disruptors of C. elegans POS-1 RNA interaction – biochemical, fluorescence polarization, dose response (AID 1964);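 also: purified POS-1 fused to maltose binding protein made in E. coli; potency of compounds blocking POS-1 binding to fluorescent RNA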
T5 sequence (G5EF15 whole entry): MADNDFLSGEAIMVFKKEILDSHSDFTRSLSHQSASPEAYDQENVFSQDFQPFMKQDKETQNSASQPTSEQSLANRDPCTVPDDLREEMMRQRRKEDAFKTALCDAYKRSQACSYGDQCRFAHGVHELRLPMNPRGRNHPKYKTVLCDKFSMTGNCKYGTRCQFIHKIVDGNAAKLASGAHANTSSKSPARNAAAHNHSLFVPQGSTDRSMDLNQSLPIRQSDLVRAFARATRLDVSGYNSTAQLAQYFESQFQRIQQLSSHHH

[5] = target: T6, Rac GTPase-activating protein 1 (Homo sapiens, UniProt Q9H0H5); assay: blockers of MgcRacGAP-driven Rac1 GTP hydrolysis – biochemical, ADP Hunter fluorescence, primary and confirmatory, confirmation (AID 624330); format: functional
T6 sequence (Q9H0H5 whole entry): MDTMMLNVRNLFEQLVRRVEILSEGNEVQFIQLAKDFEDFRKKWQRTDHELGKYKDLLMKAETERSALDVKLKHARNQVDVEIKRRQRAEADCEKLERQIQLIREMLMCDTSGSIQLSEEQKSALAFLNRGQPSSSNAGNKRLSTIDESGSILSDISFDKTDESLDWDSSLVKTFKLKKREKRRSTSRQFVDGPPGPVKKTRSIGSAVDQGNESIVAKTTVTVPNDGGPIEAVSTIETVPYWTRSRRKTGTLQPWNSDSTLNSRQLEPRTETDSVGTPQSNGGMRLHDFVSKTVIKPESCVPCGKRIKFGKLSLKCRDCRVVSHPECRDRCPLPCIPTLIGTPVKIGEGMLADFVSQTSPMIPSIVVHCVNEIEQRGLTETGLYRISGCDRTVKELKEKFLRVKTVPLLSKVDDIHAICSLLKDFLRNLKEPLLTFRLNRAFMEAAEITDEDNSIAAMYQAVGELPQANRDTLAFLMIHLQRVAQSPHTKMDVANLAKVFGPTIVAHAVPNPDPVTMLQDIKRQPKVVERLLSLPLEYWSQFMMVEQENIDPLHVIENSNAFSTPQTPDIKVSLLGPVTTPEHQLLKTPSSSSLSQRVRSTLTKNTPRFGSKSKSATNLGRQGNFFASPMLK

[6] = viability loss in HeLa cells – cytotoxicity control for MgcRacGAP inhibitor project, dose response (AID 624300); format: functional

Sequence of Cytochrome P450 3A4 (P08684 whole entry): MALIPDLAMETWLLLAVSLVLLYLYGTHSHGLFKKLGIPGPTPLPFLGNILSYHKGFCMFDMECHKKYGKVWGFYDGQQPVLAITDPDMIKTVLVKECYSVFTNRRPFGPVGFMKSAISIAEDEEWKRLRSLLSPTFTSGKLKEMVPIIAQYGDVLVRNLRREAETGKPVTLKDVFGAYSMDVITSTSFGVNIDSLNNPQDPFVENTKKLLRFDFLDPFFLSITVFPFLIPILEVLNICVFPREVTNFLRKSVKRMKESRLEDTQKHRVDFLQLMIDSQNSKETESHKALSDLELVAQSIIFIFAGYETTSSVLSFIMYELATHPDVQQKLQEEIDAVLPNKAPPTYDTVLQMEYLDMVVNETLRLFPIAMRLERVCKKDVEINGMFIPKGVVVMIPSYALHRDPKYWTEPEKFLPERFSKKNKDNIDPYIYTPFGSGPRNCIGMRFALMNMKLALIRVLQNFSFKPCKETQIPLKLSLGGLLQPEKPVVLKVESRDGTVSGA
Sequence of Cytochrome P450 2C19 (P33261 whole entry): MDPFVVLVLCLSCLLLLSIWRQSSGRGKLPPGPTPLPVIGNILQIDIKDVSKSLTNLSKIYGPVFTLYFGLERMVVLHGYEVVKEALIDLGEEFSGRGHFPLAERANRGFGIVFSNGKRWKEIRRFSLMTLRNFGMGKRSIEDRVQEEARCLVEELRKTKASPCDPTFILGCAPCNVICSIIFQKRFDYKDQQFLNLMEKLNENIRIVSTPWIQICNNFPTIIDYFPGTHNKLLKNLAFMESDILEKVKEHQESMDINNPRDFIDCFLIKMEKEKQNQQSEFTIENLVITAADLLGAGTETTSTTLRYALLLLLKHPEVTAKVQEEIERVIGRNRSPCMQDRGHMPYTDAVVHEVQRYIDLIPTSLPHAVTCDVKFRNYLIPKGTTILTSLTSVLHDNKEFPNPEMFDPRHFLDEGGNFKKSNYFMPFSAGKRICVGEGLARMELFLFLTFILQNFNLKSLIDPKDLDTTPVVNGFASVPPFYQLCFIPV

SMILES: Clc1ccc(Nc2nc[nH]n2)cc1
AC50 (Cytochrome P450 2C19): 14.1 µM (inconclusive)
AC50 (Cytochrome P450 3A4): 31.6 µM (inconclusive)
IC50 (Leucine aminopeptidase): 1.53 µM (active)

SMILES: Cn1c(=O)c2nc(NN=Cc3ccc(Br)cc3)[nH]c2n(C)c1=O
IC50 (H9c2): > 79 µM (inactive)

SMILES: CC1(C)CC(=O)C2=C(C1)OC(N)=C(C#N)C21C(=O)N2CCCc3cccc1c32 (stereo unspecified)
EC50 [3]: > 300 µM (not active)
EC50 [4]: > 300 µM (not active)

SMILES: CCCCN1C(=O)/C(=C2/Sc3ccc(OC)cc3N2CC)SC1=S
EC50 [3]: > 300 µM (inconclusive)
EC50 [4]: > 300 µM (inconclusive)

SMILES: COc1ccc(/C=C2\CCCC(C(=O)C(F)(F)F)=C2O)cc1OC
EC50 [3]: 254 µM (inconclusive)
EC50 [4]: > 300 µM (not active)

SMILES: c1ccc(-c2nn3c(-c4ccco4)nnc3s2)nc1
IC50 (H9c2): 12.8 µM (active)

Now from value to molecule, other results behind:

AC50 [1]: 3.24 µM (active)
IC50 [2]: 4.04 µM (active)
SMILES: CCOC(=O)c1ccc2c(c1)[n+](CC)c(/C=C/N(C)c1ccccc1)n2CC

IC50 (Leucine aminopeptidase): < 1 µM (active)
SMILES: COc1cccc(NC(=O)CSc2nc3c(oc4ccccc43)c(=O)[nH]2)c1

IC50 (Leucine aminopeptidase): 31.2 µM (active)
SMILES: Cc1ccc(-n2c(SCC(=O)OC(C)C)nnc2-c2ccco2)cc1

EC50 [3]: 5.04 µM (active)
EC50 [4]: 2.97 µM (inconclusive)
SMILES: O=S(=O)(NNC(=S)Nc1ccc(S(=O)(=O)Nc2ncccn2)cc1)c1ccc(Br)cc1

IC50 [5]: 98.3 µM (active)
SMILES: Nc1ccccc1C(=O)NNc1c2ccccc2nc2ccccc12
CC50 [6]: 100 µM (active)

IC50 [5]: 225 µM (active)
SMILES: COc1cc2c(cc1N=C(S)Nc1cccc(C(F)(F)F)c1)oc1ccccc12
CC50 [6]: 100 µM (active)
